These results are taken from patent US20090298866A1, “Indole Compounds” (priority 2006, published 2009).

Structures can show the parent of a compound that is named as a salt. Bounds are passed on as bounds.

The target of test [1] is T1, human EP1 receptor (Homo sapiens, UniProt P34995).
T1 construct: expressed in transfected cells; host or cells: CHO-K1
T1 sequence (P34995 1-402): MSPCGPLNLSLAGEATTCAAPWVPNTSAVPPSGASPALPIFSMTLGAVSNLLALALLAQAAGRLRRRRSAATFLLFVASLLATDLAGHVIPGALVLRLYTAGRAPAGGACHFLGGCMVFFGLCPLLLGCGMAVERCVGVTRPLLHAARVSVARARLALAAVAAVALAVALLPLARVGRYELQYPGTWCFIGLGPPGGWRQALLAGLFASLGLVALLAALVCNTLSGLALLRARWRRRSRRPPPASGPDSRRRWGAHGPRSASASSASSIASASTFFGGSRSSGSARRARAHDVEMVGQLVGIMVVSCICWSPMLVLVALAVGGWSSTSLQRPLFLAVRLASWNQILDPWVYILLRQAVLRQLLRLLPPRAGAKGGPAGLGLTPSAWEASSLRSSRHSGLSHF
The test can be described thus: Binding assay for the human prostanoid EP1 receptor (competition with [3H]-PGE2). The note with it: binding to human EP1 receptor, CHO-K1 membranes, [3H]-PGE2 3 nM; averages of a number of experiments. The procedure:
Competition assay using [^3H]-PGE2.
Compound potencies are determined using a radioligand binding assay. In this assay compound potencies are determined from their ability to compete with tritiated prostaglandin E2 ([^3H]-PGE2) for binding to the human EP1 receptor. This assay utilises Chinese hamster ovary-K1 (CHO-K1) cells into which a stable vector containing the EP1 cDNA has previously been transfected. Cells are cultured in suitable flasks containing culture medium such as DMEM:F-12 supplemented with 10% v/v foetal calf serum, 2 mM L-glutamine, 0.25 mg/ml geneticin, 10 μg/ml puromycin and 10 μM indomethacin.
Cells are detached from the culture flasks by incubation in calcium and magnesium free phosphate buffered saline containing 1 mM disodium ethylenediaminetetraacetic acid (Na2EDTA) and 10 μM indomethacin for 5 min. The cells are isolated by centrifugation at 250×g for 5 mins and suspended in an ice cold buffer such as 50 mM Tris, 1 mM Na2EDTA, 140 mM NaCl, 10 μM indomethacin (pH 7.4). The cells are homogenised using a Polytron tissue disrupter (2×10 s burst at full setting), centrifuged at 48,000×g for 20 mins and the pellet containing the membrane fraction is washed (optional) three times by suspension and centrifugation at 48,000×g for 20 mins. The final membrane pellet is suspended in an assay buffer such as 10 mM 2-[N-morpholino]ethanesulphonic acid, 1 mM Na2EDTA, 10 mM MgCl2 (pH 6). Aliquots are frozen at −80° C. until required.
For the binding assay the cell membranes, competing compounds and [^3H]-PGE2 (3 nM final assay concentration) are incubated in a final volume of 100 μl for 30 min at 30° C. All reagents are prepared in assay buffer. Reactions are terminated by rapid vacuum filtration over GF/B filters using a Brandell cell harvester. The filters are washed with ice cold assay buffer, dried and the radioactivity retained on the filters is measured by liquid scintillation counting in Packard TopCount scintillation counter.
The data are analysed using non linear curve fitting techniques to determine the concentration of compound producing 50% inhibition of specific binding (IC50).

In test [2] the target is T2, human EP3 receptor (Homo sapiens, UniProt P43115).
T2 construct: expressed in transfected cells; host or cells: CHO-K1
T2 sequence (P43115 1-390): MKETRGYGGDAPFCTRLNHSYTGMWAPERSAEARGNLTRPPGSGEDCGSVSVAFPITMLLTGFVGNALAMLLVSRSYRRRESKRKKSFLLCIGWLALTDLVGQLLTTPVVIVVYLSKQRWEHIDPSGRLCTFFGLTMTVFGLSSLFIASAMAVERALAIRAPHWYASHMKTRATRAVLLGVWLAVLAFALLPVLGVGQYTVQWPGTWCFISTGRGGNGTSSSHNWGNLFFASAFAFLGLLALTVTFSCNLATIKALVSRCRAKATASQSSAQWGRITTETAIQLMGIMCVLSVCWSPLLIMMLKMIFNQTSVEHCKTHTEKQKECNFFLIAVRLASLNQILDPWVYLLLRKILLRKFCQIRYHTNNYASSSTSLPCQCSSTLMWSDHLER
The test can be described thus: human EP3 calcium mobilisation assay. The following applies: heading: functional pKi; human EP3, CHO-K1 cells, PGE2-induced calcium mobilisation; averages of a number of experiments. The format is cell-based. The protocol:
(§1) Briefly, the antagonist properties of compounds are assessed by their ability to inhibit the mobilisation of intracellular calcium ([Ca^2+]i) in response to activation of EP1 or EP3 receptors by the natural agonist hormone prostaglandin E2 (PGE2). Increasing concentrations of antagonist reduce the amount of calcium that a given concentration of PGE2 can mobilise. The net effect is to displace the PGE2 concentration-effect curve to higher concentrations of PGE2. The amount of calcium produced is assessed using a calcium-sensitive fluorescent dye such as Fluo-4, AM and a suitable instrument such as a Fluorimetric Imaging Plate Reader (FLIPR). Increasing amounts of [Ca^2+]i produced by receptor activation increase the amount of fluorescence produced by the dye and give rise to an increasing signal. The signal may be detected using the FLIPR instrument and the data generated may be analysed with suitable curve-fitting software.
(§2) The human EP1 or EP3 calcium mobilisation assay (hereafter referred to as ‘the calcium assay’) utilises Chinese hamster ovary-K1 (CHO-K1) cells into which a stable (pCIN; BioTechniques 20 (1996): 102-110) vector containing either EP1 or EP3 cDNA has previously been transfected. Cells are cultured in suitable flasks containing culture medium such as DMEM:F-12 supplemented with 10% v/v foetal calf serum, 2 mM L-glutamine, 0.25 mg/ml geneticin, 100 μM flurbiprofen and 10 μg/ml puromycin.
(§3) For assay, cells are harvested using a proprietary reagent that dislodges cells such as Versene. Cells are re-suspended in a suitable quantity of fresh culture media for introduction into a 384-well plate. Following incubation for 24 hours at 37° C. the culture media is replaced with a medium containing Fluo-4 and the detergent pluronic acid, and a further incubation takes place. Concentrations of compounds are then added to the plate in order to construct concentration-effect curves. This may be performed on the FLIPR in order to assess the agonist properties of the compounds. Concentrations of PGE2 are then added to the plate in order to assess the antagonist properties of the compounds.
(§4) The data so generated may be analysed by means of a computerised curve-fitting routine. The concentration of compound that elicits a half-maximal inhibition of the calcium mobilisation induced by PGE2 (pIC50) may then be estimated.
For orientation: Calcium flux is commonly read through the fluorescence of an indicator in the cells.

The target in test [3] is T1, human EP1 receptor. In words: human EP1 calcium mobilisation assay. In kind it is cell-based. The following applies: human EP1, CHO-K1 cells, PGE2-induced calcium mobilisation; averages of a number of experiments; read-out: functional pKi (converted). The procedure: as §1, §2, §3, §4
Test [4] relates to rat model of chronic constriction injury. The note with it: Anesthesia and Analgesia 2001, 93, 1012-7; cited from earlier work.
The subject of test [5] is rodent model of post-operative pain. The following applies: Anesthesia and Analgesia 2001, 92, 233-238; cited from earlier work.

In turn, `CC(C)Cc1cn(-c2nc(-c3nc4cc(CO)ccc4[nH]3)cs2)c2cc(Cl)ccc12` [Example 45, (2-{2-[6-Chloro-3-isobutyl-1H-indol-1-yl]-1,3-thiazol-4-yl}-1H-benzimidazol-5-yl)methanol hydrochloride] gave an IC50 in test [1] of no more than 0.1 µM. The Ki in test [2] is greater than 3.16 µM.

With `CC(C)Cc1cn(-c2nc(NC(=O)c3ccc(CO)cc3)cs2)c2cc(Cl)ccc12` [Example 9, N-[2-(6-Chloro-3-isobutyl-1H-indol-1-yl)-1,3-thiazol-4-yl]-4-(hydroxymethyl)benzamide], the Ki in test [2] is greater than 3.16 µM.

In turn, `Cc1nnc(-c2csc(-n3cc(CC(C)C)c4ccc(Cl)cc43)n2)[nH]1` [Example 55, 3-[2-(6-Chloro-3-isobutyl-1H-indol-1-yl)-1,3-thiazol-4-yl]-5-methyl-4H-1,2,4-triazole] gave an IC50 in test [1] of no more than 0.1 µM. In addition, the Ki in test [2] was greater than 3.16 µM.

As to `CC(C)Cc1cn(-c2nc(-c3nnc[nH]3)cs2)c2cc(Cl)ccc12` [Example 54, 3-[2-(6-Chloro-3-isobutyl-1H-indol-1-yl)-1,3-thiazol-4-yl]-4H-1,2,4-triazole], the Ki in test [2] is greater than 3.16 µM.

In the case of `CC(C)Cc1cn(-c2nc(C(=O)Nc3c(F)cccc3F)cs2)c2cc(Cl)ccc12` [Example 33, 2-[6-Chloro-3-isobutyl-1H-indol-1-yl]-N-(2,6-difluorophenyl)-1,3-thiazole-4-carboxamide], the Ki in test [3] is no more than 0.1 µM; in test [2] it was greater than 3.16 µM. Moreover, the IC50 in test [1] was no more than 0.1 µM.

Consider `CC(C)Cc1cn(-c2nc(-c3nc4ccccc4[nH]3)co2)c2cc(Cl)ccc12` [Example 36, 2-{2-[6-Chloro-3-isobutyl-1H-indol-1-yl]-1,3-oxazol-4-yl}-1H-benzimidazole hydrochloride], for which the half-inhibitory concentration (IC50) in test [1] was no more than 0.1 µM. Also, the Ki in test [2] was greater than 3.16 µM.

For `CCCNC(=O)Nc1csc(-n2cc(CC(C)C)c3ccc(Cl)cc32)n1` [Example 10, N-[2-(6-Chloro-3-isobutyl-1H-indol-1-yl)-1,3-thiazol-4-yl]-N′-propylurea], in test [2], the Ki was greater than 3.16 µM.

For the compound `CC(C)Cc1cn(-c2nc(NC(=O)c3cccnc3)cs2)c2cc(Cl)ccc12` [Example 6, N-[2-(6-Chloro-3-isobutyl-1H-indol-1-yl)-1,3-thiazol-4-yl]nicotinamide], in test [2], the Ki is greater than 3.16 µM.

`CC(C)Cc1cn(-c2nc(-c3nc4c(CO)cccc4[nH]3)cs2)c2cc(Cl)ccc12` [Example 46, (2-{2-[6-Chloro-3-isobutyl-1H-indol-1-yl]-1,3-thiazol-4-yl}-1H-benzimidazol-4-yl)methanol]: the Ki was no more than 0.1 µM in test [3] and greater than 3.16 µM in test [2].

For `CC(=O)OCc1ccc(C(=O)Nc2csc(-n3cc(CC(C)C)c4ccc(Cl)cc43)n2)cc1` [Example 56, {4-[({2-[6-Chloro-3-(2-methylpropyl)-1H-indol-1-yl]-1,3-thiazol-4-yl}amino)carbonyl]phenyl}methyl acetate], in test [2], the Ki was greater than 3.16 µM.

For the compound `CC(C)Cc1cn(-c2nc(C(=O)Nc3ccncc3)cs2)c2cc(Cl)ccc12` [Example 25, 2-[6-Chloro-3-isobutyl-1H-indol-1-yl]-N-4-pyridinyl-1,3-thiazole-4-carboxamide], the Ki in test [2] is greater than 3.16 µM.

As to `CC(C)Cc1cn(-c2nc(-c3nc4ccccc4[nH]3)cs2)c2cc(C(F)(F)F)ccc12` [Example 41, 2-{2-[3-Isobutyl-6-(trifluoromethyl)-1H-indol-1-yl]-1,3-thiazol-4-yl}-1H-benzimidazole], the Ki in test [3] was no more than 0.1 µM. The compound also showed an IC50 in test [1] of no more than 0.1 µM.

Regarding `Cc1cc(Cl)ccc1S(=O)(=O)NC[C@H]1C2CCC(CC2)[C@@H]1/C=C\CCCC(=O)O` [ONO-8711], in test [4], the hyperalgesia and allodynia entry was “reduces hyperalgesia and allodynia”. Also, the mechanical hyperalgesia result in test [5] is “inhibits mechanical hyperalgesia”.

Broadly, the IC50 is the point on the concentration scale where inhibition reaches its midpoint.
